Patent publication US20100183613A1, “METHODS OF USING MEVALONATE DECARBOXYLASE (MVD) ANTAGONISTS” (NOVARTIS AG, priority 2008, published 2010)
Entries after “also recorded” stand apart in the source; their conditions may differ. Like-named read-outs stand apart in the source and are kept apart here.

Experiments:
[1] = test system: Dengue NGC virus; test: Dengue NGC live virus infection in K562 cells, FACS (anti-E/anti-NS1 double positive cells); format: cell-based; settings: for EC50: read-out: EC50 (effective concentration of 50% inhibition of virus growth); for percent Dengue positive cells (E and NS1 double positive): K562, Dengue NGC, 48 hours, 4.8% positive without treatment; for inhibition of viral growth / effect on infection: K562 infection assay
Protocol: (§1) For compound testing, K562 infection system was used. […] The cell viability is measured by Celltiter Glo.
(§2) To determine the EC50 (effective concentration of 50% inhibition of virus growth) and the cytotoxity CC50 (concentration of 50% cell death), a dose response curve covering at least four different concentrations was done in K562 infection. The decrease of the percentage of the dengue positive cells was then plotted against the concentrations of inhibitors, using a nonlinear regression analysis to obtain the EC50. CC50 was calculated using the same method using the cell viability over the same range of inhibitor concentrations.

[2] = Cell viability of infected K562 cells by Celltiter Glo; format: cell-based, human; settings: human, K562 cells infected with dengue NGC virus, K562 infection, same range of inhibitor concentrations, read-out: CC50 (concentration of 50% cell death)
Protocol: as §1, §2

[3] = test system: K562 cells; test: as above; format: cell-based, human; settings: for CC50: K562 infection, same range of inhibitor concentrations, read-out: CC50 (concentration of 50% cell death)
Protocol: as §1, §2

[4] = test system: dengue strain MY10340; test: Live virus titer in PBMC infection by plaque assay; format: cell-based, Dengue virus; settings: human PBMC, two days, increasing concentration
Protocol: PBMC (Peripheral Blood Mononuclear Cell) were prepared from buffy coat from healthy donors using ficoll gradient. […] For virus titer analysis, the level of live virus was determined by plaque assay in BHK-21 cells (ATCC) in triplicate.
For compound testing, K562 infection system was used. 50,000 K562 cells were plated in 96 well in 100 ul and infected the second day with 1 m.o.i of NGC virus for two days. Compounds were added together with the virus and the viral growth was measured by FACS with two antibodies, the anti-Dengue Envelope protein antibody (ATCC) (26) conjugated to Alexa 680 (Invitrogen) and the anti NS1 antibody (ATCC) conjugated to Alexa 488. The cell viability is measured by Celltiter Glo. The supernatant after infection were collected for plaque assay for live virus titer. For PBMC infection, conditions were the same as for K562 infection except 500,000 total cells were plated and an 1:10,000 diluted dengue IgG positive serum was added to the infection.

[5] = test system: dengue strain MY10340; test: Dengue infection of human PBMCs, FACS; format: cell-based, Dengue virus; settings: human PBMC, two days, enhancing antibodies, increasing concentration
Protocol: as §1
Statins are a safe and widely used drug for the treatment of hypercholesterolemia (12). The toxicity observed in K562 cells could be due to the specific effect of Statins in a cancer cell line (1,22). For avoiding the toxicity in cancer or transformed cell lines, health donors' PBMC were collected, and tested the effect of statin in PBMC infection was tested. PBMCs were infected with a clinically isolated dengue strain MY10340 for two days in the presence of enhancing antibodies from dengue positive plasma. The infection was assessed by FACS and plaque assay as for K562 infection.

[6] = test system: Dengue NGC virus; test: Plaque assay of supernatant after K562 infection; format: cell-based; settings: infected K562 cells, 48 hours, 0.1 μM and 10 μM
Protocol: The human lung-epithelial carcinoma A549 cell-line and hematopoetic cell line K562 are from ATCC and cultured according to instruction. PBMC (Peripheral Blood Mononuclear Cell) were prepared from buffy coat from healthy donors using ficoll gradient. The A549 dengue NGC replicon cells used for the work contains non-infectious, self replicating Dengue virus with a Renilla luciferase reporter under puromycin selection (24). Cells were cultured in F12 (Hams) medium (Invitrogen, Carlsbad, Calif.) supplemented with 10% fetal bovine serum (FBS) and puromycin (10-50 μg/ml). Cells were assayed in F12 medium supplement with 2% FBS without puromycin. Dengue NGC virus (GenBank number M29095) and the Malaysian clinical isolates MY10340 (from Shamala Devi, University of Malaya, Malaysia) were propagated in insect cells C6/36 (ATCC). For virus titer analysis, the level of live virus was determined by plaque assay in BHK-21 cells (ATCC) in triplicate.
as §1

[7] = K562 cells, 1 m.o.i NGC virus, two days, decrease of percentage of dengue positive cells by FACS

Molecule | CC50 at 2 days [2] [µM] | EC50 [1, 7] [µM] | CC50 [3] [µM] | inhibition of viral growth / effect on infection [1] | other results
CC(C)n1c(/C=C/C(O)CC(O)CC(=O)O)c(-c2ccc(F)cc2)c2ccccc21 (stereo not drawn) [Fluvastatin] | 48.8 | – | – | – | EC50 ([1]; Dengue virus, K562, 48 h): > 50 µM
CC(C)C[C@H](NC(=O)c1ccc(NCc2cnc[nH]2)cc1-c1cccc2ccccc12)C(=O)O [GGTI 2133] | – | > 50 | > 50 | – | –
CC[C@H](C)C(=O)O[C@H]1C[C@@H](C)C=C2C=C[C@H](C)[C@H](CC[C@@H]3C[C@@H](O)CC(=O)O3)[C@H]21 [Lovastatin] | 46.8 | – | – | – | virus titer [4]: decreased; EC50 ([1]; 48 h, K562 cells, 1 m.o.i NGC virus, two days, decrease of percentage of dengue positive cells by FACS): > 50 µM; percentage of infected cells [5]: decreased
C=C(CC[C@]12O[C@H](C(=O)O)[C@@](O)(C(=O)O)[C@](C(=O)O)(O1)[C@H](OC(=O)/C=C/[C@@H](C)C[C@@H](C)CC)[C@H]2O)[C@@H](OC(C)=O)[C@H](C)Cc1ccccc1 [Zaragozic Acid, Zaragozic acid A] | – | 8.3 | > 50 | significantly inhibited | percent Dengue positive cells (E and NS1 double positive) ([1]; 0.1 μM ZGA): 2.8%; percent Dengue positive cells (E and NS1 double positive) ([1]; 10 μM ZGA): 0.6%; effect on cell viability / cytotoxicity ([3]; K562 cells, dose range, 48 hours, listed as ZGA): no significant cytotoxicity; also recorded: no effect; fold less plaque than cells treated with DMSO alone [6]: 2-6 fold
Hymeglusin | – | 4.5 | ~50 | significantly inhibited | –
